# Results from publication PMC8002452, “Molecular Basis of AmpC β-Lactamase Induction by Avibactam in Pseudomonas aeruginosa: PBP Occupancy, Live Cell Binding Dynamics and Impact on Resistant Clinical Isolates Harboring PDC-X Variants” (International Journal of Molecular Sciences, 2021).
# What was measured:
# PBP3 [1] = biological target: T1, PBP3 (Pseudomonas aeruginosa, UniProt G3XD46); assay: Intact cells' time-course of PBP-binding assay; type: cell-based, P. aeruginosa PAO1; conditions: intact PAO1 cells, 4 µg/mL avibactam, up to 60 min
# T1 construct: PBP-containing membranes were isolated by ultracentrifugation; endogenous in cells; host or cells: P. aeruginosa PAO1 wild type (membrane preparations or intact cells)
# Method: (§1) Figure 2 Time-course of intact cells and isolated PBP-binding assay. P. aeruginosa PAO1 cultures (a) and isolated PBP-containing membrane preparations (b) were incubated for 15, 30 and 60 min in the presence of 4 µg/mL avibactam (AVI). After isolating PBP-containing membranes, preparations were labeled with 25 µM bocillin FL. The graphs represent the PBP fraction unbound relative to each time control over time. The mean PBP fraction unbound values from at least three independent experiments ± standard deviations are shown.
# (§2) P. aeruginosa PAO1 cultures grown to the midexponential phase (7.6 log10 CFU/mL) were preincubated in cation-adjusted Mueller–Hinton broth (CAMHB) at 37 °C (180 rpm) for 20 min. Afterwards, 4 µg/mL of avibactam (AVI) was added, and the bacterial cultures were incubated (37 °C, 180 rpm). Control and treatment samples were taken after 15, 30 and 60 min incubation, kept in ice and centrifuged (3220× g for 10 min at 4 °C). The bacterial pellets were washed in 30 mL phosphate-buffered saline (PBS) (pH 7.5) four times, resuspended in 10 mL of PBS and sonicated by using a Digital Sonifier Unit model S-450D (Branson Ultrasonics Corp., Danbury, CT, USA) at 40% amplitude for three 2 min bursts (while immersed in an ice bath) and centrifuged at 3220× g for 15 min at 4 °C. Membranes containing the PBPs were isolated by ultracentrifugation at 150,000× g for 30 min at 4 °C using an Optima L100XP Ultra centrifuge (Beckman Coulter, Inc., Palo Alto, CA, USA) and were resuspended in 60 μL of PBS. Total protein content was measured using the Quick Start Bradford protein assay kit with bovine serum albumin as a standard (Bio-Rad Laboratories, Hercules, CA, USA), according to the manufacturer’s instructions. To determine the PBP fraction unbound, membranes containing PBPs (20 μL, at 0.5 mg/mL) were labeled with a 25 μM concentration of the fluorescent penicillin bocillin FL [32]. Labeled PBPs were denatured and separated through 4–15% SDS–polyacrylamide gel electrophoresis (Bio-Rad Laboratories, Hercules, CA, USA). Labeled PBPs were visualized using a Typhoon FLA 9500 biomolecular imager (GE Healthcare Bio-Sciences AB, Uppsala, Sweden) (excitation at 488 nm and emission at 530 nm), and binding to different PBPs was determined from at least three independent experiments using ImageQuant TL software v8.1.0.0 (GE Healthcare Bio-Sciences AB, Uppsala, Sweden).
# PBP1b = PBP1b (Pseudomonas aeruginosa, UniProt G3XD31); assay: Intact cells' time-course of PBP-binding assay; type: cell-based, P. aeruginosa PAO1; conditions: 1 h; intact PAO1 cells, 4 µg/mL avibactam, 60 min; read-out: PBP1b fraction bound
# Method: as §1, §2
# PBP1a = biological target: T2, PBP1a (Pseudomonas aeruginosa, UniProt Q07806); assay: Intact cells' time-course of PBP-binding assay; type: cell-based, P. aeruginosa PAO1; conditions: intact PAO1 cells, 4 µg/mL avibactam, up to 60 min
# T2 construct: PBP-containing membranes were isolated by ultracentrifugation; endogenous in cells; host or cells: P. aeruginosa PAO1 wild type (membrane preparations or intact cells)
# Method: as §1, §2
# PBP5/6 = PBP5/6 (Pseudomonas aeruginosa, UniProt G3XD74); assay: Intact cells' time-course of PBP-binding assay; type: cell-based, P. aeruginosa PAO1; conditions: intact PAO1 cells, 4 µg/mL avibactam, up to 60 min
# Method: as §1, §2
# PBP2 = biological target: T3, PBP2 (Pseudomonas aeruginosa, UniProt Q9X6V3); assay: Intact cells' time-course of PBP-binding assay; type: cell-based, P. aeruginosa PAO1; conditions: intact PAO1 cells, 4 µg/mL avibactam, 60 min
# T3 construct: PBP-containing membranes were isolated by ultracentrifugation; endogenous in cells; host or cells: P. aeruginosa PAO1 wild type (membrane preparations or intact cells)
# Method: as §1, §2
# PBP4 = PBP4 (Pseudomonas aeruginosa, UniProt Q9HZG1); assay: Intact cells' time-course of PBP-binding assay; type: cell-based, P. aeruginosa PAO1; conditions: 1 h; intact PAO1 cells, 4 µg/mL avibactam, 60 min; read-out: PBP4 fraction bound
# Method: as §1, §2
# PBP3 [2] = biological target: T1, PBP3; assay: biochemical; type: binding, P. aeruginosa PAO1; conditions: PAO1 membranes 0.5 mg/mL, 30 min, 25 µM bocillin FL
# Method: PBP-binding affinity was determined using previously described methods. Briefly, P. aeruginosa PAO1 cultures grown to the midexponential phase (7.6 log10 CFU/mL) were incubated in CAMHB at 37 °C and 180 rpm, washed and centrifuged (3220× g for 10 min at 4 °C). Bacterial pellets were washed in 30 mL of PBS buffer (pH 7.5), resuspended in 10 mL of PBS and sonicated at 40% amplitude for three 2 min bursts (while immersed in an ice bath) and centrifuged at 3220× g for 15 min at 4 °C. PBP-containing membranes were isolated by ultracentrifugation at 150,000× g for 30 min at 4 °C. Total protein concentrations were measured through the Bradford method.
# Subsequently, the fluorescent penicillin bocillin FL was added to a 25 μM final concentration. Labeled PBPs were denatured and separated through 4–15% SDS–polyacrylamide gel electrophoresis. Labeled PBPs were visualized using a Typhoon FLA 9500 biomolecular imager (GE Healthcare Bio-Sciences AB, Uppsala, Sweden) (excitation at 488 nm and emission at 530 nm), and binding was determined from at least three independent experiments using ImageQuant TL software v8.1.0.0 (GE Healthcare Bio-Sciences AB, Uppsala, Sweden).
# T1 sequence (G3XD46 whole entry): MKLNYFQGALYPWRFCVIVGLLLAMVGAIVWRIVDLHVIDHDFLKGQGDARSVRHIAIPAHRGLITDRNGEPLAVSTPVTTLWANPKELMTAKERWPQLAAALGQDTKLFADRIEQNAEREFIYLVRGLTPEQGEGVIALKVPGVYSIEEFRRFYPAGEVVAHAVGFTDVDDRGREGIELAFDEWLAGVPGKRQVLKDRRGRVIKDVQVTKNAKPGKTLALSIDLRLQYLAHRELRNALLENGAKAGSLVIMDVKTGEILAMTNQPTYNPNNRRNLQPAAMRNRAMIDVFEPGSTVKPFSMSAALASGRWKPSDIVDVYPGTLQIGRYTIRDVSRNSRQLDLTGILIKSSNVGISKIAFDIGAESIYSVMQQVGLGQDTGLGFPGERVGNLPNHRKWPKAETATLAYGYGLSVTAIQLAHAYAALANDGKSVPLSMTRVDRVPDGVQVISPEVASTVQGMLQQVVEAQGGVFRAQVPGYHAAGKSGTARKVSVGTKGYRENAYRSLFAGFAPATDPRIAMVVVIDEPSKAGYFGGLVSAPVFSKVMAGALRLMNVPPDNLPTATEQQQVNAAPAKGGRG
# PBP1b, sequence (G3XD31 entry or part of it): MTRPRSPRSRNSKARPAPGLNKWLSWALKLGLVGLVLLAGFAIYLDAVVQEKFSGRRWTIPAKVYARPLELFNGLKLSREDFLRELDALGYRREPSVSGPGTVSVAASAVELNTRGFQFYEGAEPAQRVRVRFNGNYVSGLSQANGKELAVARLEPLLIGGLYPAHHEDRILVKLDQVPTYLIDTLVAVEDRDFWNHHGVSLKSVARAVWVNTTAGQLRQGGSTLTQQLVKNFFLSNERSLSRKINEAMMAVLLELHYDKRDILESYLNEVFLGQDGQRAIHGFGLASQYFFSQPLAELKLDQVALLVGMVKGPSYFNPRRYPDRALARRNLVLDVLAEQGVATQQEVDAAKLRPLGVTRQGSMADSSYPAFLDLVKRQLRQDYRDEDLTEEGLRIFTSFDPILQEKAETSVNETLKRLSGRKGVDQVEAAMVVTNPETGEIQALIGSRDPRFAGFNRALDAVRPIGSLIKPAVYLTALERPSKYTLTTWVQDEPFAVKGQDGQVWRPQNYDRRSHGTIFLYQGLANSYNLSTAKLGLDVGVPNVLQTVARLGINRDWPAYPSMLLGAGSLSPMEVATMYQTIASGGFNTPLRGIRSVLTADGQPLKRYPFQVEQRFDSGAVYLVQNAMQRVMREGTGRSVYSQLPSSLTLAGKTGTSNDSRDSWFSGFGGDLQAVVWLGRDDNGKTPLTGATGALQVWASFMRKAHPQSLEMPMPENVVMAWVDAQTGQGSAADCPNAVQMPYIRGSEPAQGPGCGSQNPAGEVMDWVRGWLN
# T3 sequence (Q9X6V3 entry or part of it): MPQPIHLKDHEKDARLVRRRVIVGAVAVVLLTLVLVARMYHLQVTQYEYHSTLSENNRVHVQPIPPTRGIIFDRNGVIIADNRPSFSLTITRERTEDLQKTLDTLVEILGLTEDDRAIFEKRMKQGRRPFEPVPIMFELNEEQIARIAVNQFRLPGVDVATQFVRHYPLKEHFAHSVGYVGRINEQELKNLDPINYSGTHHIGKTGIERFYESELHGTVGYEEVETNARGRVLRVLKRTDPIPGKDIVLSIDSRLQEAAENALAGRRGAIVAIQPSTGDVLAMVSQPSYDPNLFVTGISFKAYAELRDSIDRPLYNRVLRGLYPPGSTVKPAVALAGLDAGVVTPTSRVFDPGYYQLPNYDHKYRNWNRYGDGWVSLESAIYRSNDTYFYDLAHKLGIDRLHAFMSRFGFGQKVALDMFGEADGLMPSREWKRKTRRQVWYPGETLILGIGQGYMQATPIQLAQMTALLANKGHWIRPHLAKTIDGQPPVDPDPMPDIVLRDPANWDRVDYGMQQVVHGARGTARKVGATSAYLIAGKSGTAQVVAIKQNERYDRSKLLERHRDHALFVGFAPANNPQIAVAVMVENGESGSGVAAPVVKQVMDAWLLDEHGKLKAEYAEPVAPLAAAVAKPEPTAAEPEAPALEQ
# PBP5/6, sequence (G3XD74 entry or part of it): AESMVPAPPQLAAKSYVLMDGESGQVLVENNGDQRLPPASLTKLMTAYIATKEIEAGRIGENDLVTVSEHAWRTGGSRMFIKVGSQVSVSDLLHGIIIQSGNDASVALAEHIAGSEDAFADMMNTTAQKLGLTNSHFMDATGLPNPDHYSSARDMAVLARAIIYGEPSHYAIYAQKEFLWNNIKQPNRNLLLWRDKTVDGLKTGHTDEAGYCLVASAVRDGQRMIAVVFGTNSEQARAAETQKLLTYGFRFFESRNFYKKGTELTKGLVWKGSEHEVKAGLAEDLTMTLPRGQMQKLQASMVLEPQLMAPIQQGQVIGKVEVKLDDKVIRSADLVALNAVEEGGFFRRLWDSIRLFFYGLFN
# PBP4, sequence (Q9HZG1 entry or part of it): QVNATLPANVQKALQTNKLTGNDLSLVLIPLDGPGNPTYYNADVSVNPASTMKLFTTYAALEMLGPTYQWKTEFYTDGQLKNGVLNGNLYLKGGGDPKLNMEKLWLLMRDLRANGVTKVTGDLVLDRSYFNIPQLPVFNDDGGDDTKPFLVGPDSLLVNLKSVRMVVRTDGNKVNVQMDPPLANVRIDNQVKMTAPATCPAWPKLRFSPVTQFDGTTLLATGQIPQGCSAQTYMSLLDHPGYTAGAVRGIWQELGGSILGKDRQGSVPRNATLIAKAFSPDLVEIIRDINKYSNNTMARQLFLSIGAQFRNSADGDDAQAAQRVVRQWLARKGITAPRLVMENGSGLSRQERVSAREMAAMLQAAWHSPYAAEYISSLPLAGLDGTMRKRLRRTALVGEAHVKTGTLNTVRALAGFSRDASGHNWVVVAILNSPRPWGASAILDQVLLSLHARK
# T2 sequence (Q07806 whole entry): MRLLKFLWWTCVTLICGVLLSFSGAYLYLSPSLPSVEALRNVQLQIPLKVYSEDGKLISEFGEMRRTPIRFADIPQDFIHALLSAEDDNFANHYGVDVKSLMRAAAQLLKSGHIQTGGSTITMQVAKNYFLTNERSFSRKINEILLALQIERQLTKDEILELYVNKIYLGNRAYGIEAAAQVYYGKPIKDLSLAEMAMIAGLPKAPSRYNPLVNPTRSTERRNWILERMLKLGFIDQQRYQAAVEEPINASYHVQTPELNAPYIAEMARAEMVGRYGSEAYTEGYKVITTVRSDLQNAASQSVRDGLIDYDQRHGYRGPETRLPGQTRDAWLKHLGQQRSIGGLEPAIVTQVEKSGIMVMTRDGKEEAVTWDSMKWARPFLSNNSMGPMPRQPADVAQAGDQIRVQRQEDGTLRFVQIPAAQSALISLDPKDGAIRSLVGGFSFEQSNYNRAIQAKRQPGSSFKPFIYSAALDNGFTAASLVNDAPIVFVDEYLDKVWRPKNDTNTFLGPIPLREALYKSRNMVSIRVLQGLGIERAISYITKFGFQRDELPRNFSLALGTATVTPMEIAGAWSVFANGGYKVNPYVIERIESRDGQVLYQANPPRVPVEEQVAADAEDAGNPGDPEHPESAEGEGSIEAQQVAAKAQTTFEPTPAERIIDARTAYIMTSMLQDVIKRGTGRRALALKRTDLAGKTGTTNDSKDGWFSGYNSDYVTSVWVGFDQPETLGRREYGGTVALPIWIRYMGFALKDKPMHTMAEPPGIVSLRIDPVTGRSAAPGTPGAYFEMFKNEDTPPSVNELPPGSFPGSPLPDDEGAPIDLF
smiles,measurement,setting,value
NC(=O)[C@@H]1CC[C@@H]2CN1C(=O)N2OS(=O)(=O)O [Avibactam],PBP3 binding in whole-cell assay,PBP3 [1],No significant
same,inhibition at 4 µg/mL,PBP1b,20%
same,PBP1a binding in whole-cell assay,PBP1a,No significant
same,PBP5/6 binding in whole-cell assay,PBP5/6,No significant
same,PBP2 fraction bound,PBP2,20%
same,inhibition at 4 µg/mL,PBP4,≤ 50%
same,"Mean IC50 ± SD, PBP 3",PBP3 [2],no PBP1a and 3 binding was detected
same,IC50,"PBP3 [2]; read-out: Mean IC50 ± SD, PBP 3 (converted)",> 121 µM
